{"source": "patent US20190336583A1", "about": "“COMPOSITIONS AND METHODS FOR TREATING IRON OVERLOAD” (priority 2017, published 2019)", "key": {"[1]": {"conditions": "normal rats, any dose level"}, "[2]": {"system": "serum iron levels", "experiment": "Effect of subcutaneous hepcidin on serum iron levels in mice (Example 1)", "type": "in vivo", "conditions": "50 μg dose subcutaneously, p<0.05", "text": "A study was designed to evaluate the effect of subcutaneous doses of hepcidin on serum iron levels in mice (n=6-7/group)."}, "[3]": {"system": "serum iron levels", "experiment": "Effect of 50, 100 and 200 μg subcutaneous hepcidin on serum iron levels in mice (Example 2)", "type": "in vivo", "conditions": "for serum iron levels compared to vehicle: p<0.01", "description": "Conversely, 50 μg and 100 μg doses were elevated (p<0.01) compared to the vehicle at 24 hours post dose. The elevated levels of serum iron could be due to the system's reaction to the clearance of hepcidin. […] Mortality was likely related to the stress of the blood collection. Serum iron levels normalized 72 hours post dose."}, "[4]": {"experiment": "Expanded acute toxicity study (NOAEL) in Sprague Dawley rats (Example 4)", "conditions": "rat, in vivo", "description": "(§1) Hepcidin was evaluated in two expanded, acute studies in rats and dogs. These studies were conducted to determine the no-observed adverse effect level (NOAEL). The NOAEL was determined to be 5 mg/kg/day in dogs due to various clinical and histopathological observations."}, "[5]": {"system": "serum iron levels", "experiment": "Effect of 1, 5, 10 and 50 mg subcutaneous hepcidin on serum iron levels in normal rats (Example 3)", "type": "in vivo", "quoted_text": "A study was designed to evaluate doses of 1, 5, 10, and 50 mg of hepcidin delivered subcutaneously and their effect on serum iron levels in normal rats (n=7/group)."}, "[6]": {"experiment": "Expanded acute toxicity study (NOAEL), single subcutaneous dose in dogs (Example 4)", "conditions": "dog, in vivo", "description": "as §1"}, "[7]": {"system": "serum iron levels", "experiment": "Serum iron levels in expanded acute study in Sprague Dawley rats (Example 4)", "quoted_text": "A study was designed to evaluate doses of 5, 25, and 50 mg/kg of hepcidin (human equivalent dose of 0.8, 4, 8 mg/kg, respectively), delivered SC to Sprague Dawley rats (n=9/sex/group)."}}}
{"molecule": "CC[C@H](C)[C@@H]1NC(=O)[C@@H](NC(=O)[C@@H](NC(=O)[C@@H]2CCCN2C(=O)[C@H](Cc2ccccc2)NC(=O)[C@H](Cc2c[nH]cn2)NC(=O)[C@@H](NC(=O)[C@@H](N)CC(=O)O)[C@@H](C)O)[C@@H](C)CC)CSSC[C@@H](C(=O)N[C@@H](CCCCN)C(=O)N[C@H](C(=O)O)[C@@H](C)O)NC(=O)[C@@H]2CSSC[C@@H]3NC(=O)[C@@H]4CSSC[C@H](NC(=O)[C@H](Cc5ccccc5)NC1=O)C(=O)N[C@@H](CSSC[C@H](NC(=O)[C@H](CCCCN)NC(=O)[C@H](CO)NC(=O)[C@H](CCCNC(=N)N)NC(=O)[C@H](Cc1c[nH]cn1)NC3=O)C(=O)NCC(=O)N[C@@H](CCSC)C(=O)N2)C(=O)NCC(=O)N4", "note": "[hepcidin]", "values": [{"measurement": "lethargy", "setting": "[1]", "value": "No lethargy was observed"}, {"measurement": "decrease in serum iron levels compared to vehicle (average)", "setting": "[2]; 4 hours post dose", "value": 40, "unit": "%"}, {"measurement": "decrease in serum iron levels compared to vehicle (average)", "setting": "[2]; 24 hours post dose", "value": 15, "unit": "%"}, {"measurement": "serum iron levels compared to vehicle", "setting": "[3]; mice, 50 μg and 100 μg doses, 24 hours post dose", "value": "elevated"}, {"measurement": "serum iron levels compared to vehicle", "setting": "[3]; mice, 50, 100 and 200 μg subcutaneously (all three doses), 4 hours post dose", "value": "significant decrease in serum iron levels"}, {"measurement": "serum iron levels", "setting": "[3]; mice, 72 hours post dose", "value": "normalized"}, {"measurement": "mortality", "setting": "[3]; mice, following the 4-hour blood collection, likely related to the stress of the blood collection", "value": "One mouse died"}, {"measurement": "toxicokinetic (TK) effect, male vs female", "setting": "[4]", "value": "comparable for both sexes"}, {"measurement": "time at which serum iron levels returned to pre-dose levels", "setting": "[5]; normal rats, 5 mg dose, post dose", "value": 48, "unit": "h"}, {"measurement": "return of serum iron levels to pre-dose levels", "setting": "[5]; normal rats, 10 mg and 50 mg dose groups, 72 hours post dose", "value": "did not return to pre-dose levels"}, {"measurement": "effect on serum iron levels", "setting": "[5]; normal rats, 50 mg, at 72 hours", "value": "still demonstrated an effect"}, {"measurement": "serum iron levels", "setting": "[5]; normal rats, 1, 5, 10 and 50 mg subcutaneously, all dose levels", "value": "significant decrease in serum iron levels"}, {"measurement": "time of lowest serum iron concentrations", "setting": "[5]; normal rats, post dose, all three doses", "value": 4, "unit": "h"}, {"measurement": "administration site microscopic findings, Day 15: cystic space", "setting": "[6]", "value": "cystic space"}, {"measurement": "administration site microscopic findings, Day 15: fibrosis", "setting": "[6]", "value": "fibrosis"}, {"measurement": "other adverse reactions", "setting": "[6]", "value": "hunched posture, soft feces, gross pathology finding of “thick,” and subcutaneous fibrosis, mixed cell infiltration, and cysts present at recovery period"}, {"measurement": "administration site microscopic findings, Day 4", "setting": "[6]; 25 mg/kg", "value": "mixed cell infiltration in the administration site"}, {"measurement": "average serum iron levels compared to vehicle and pre-dose levels", "setting": "[7]; Sprague Dawley rats, 5, 25 and 50 mg/kg SC, all doses", "value": "significantly decreased"}, {"measurement": "time of lowest serum iron level", "setting": "[7]; Sprague Dawley rats, post dose, all three doses", "value": 4, "unit": "h"}]}
